For test [1] the following is noted: rats fed BAP for 13 weeks, EPA study, no data shown; cited from earlier work.
For the next test, the system named is mHypoE-41 cell line. Put plainly: Gene expression by qRT-PCR in mHypoE-41 hypothalamic cell line. The format is cell-based, mouse. The conditions noted are these: 16 hr. The procedure:
(§1) Hypothalamic neurons from embryonic and adult mice were previously immortalized to generate the clonal cell lines mHypoE-46, mHypoE-44, mHypoE-41, mHypoE-38, mHypoA-59, a FAC-sorted POMC/GFP mouse-derived cell line, mHypoA-POMC/GFP-2, and a mixed culture mHypoA-Bmal1-WT/F cell line (6, 13, 14). The mHypoE-46, mHypoE-44, and mHypoA-Bmal1-WT/F lines were cultured in DMEM containing 1000 mg/L glucose supplemented with 5% FBS and 1% pen/strep. The mHypoE-41, mHypoE-38, and mHypoA-59 cell lines were cultured in DMEM containing 4500 mg/L glucose supplemented with 2% FBS and 1% pen/strep. The mHypoA-POMC/GFP-2 line was cultured in DMEM containing 1000 mg/L glucose supplemented with 2% FBS and 1% pen/strep. All cells were maintained in 5% CO2 at 37° C. BAP was initially dissolved in DMSO solvent (vehicle control) to achieve 1000x the intended dose. The BAP solution was then diluted 1:1000 with the growth media used for the cell line. For co-treatment experiments, the vehicle control for ATP, UDP, and PKI was water, and for the H89 PKA inhibitor was DMSO. Neuropeptide gene expression levels were determined by qRT-PCR.
(§2) For cell culture experiments, total RNA was isolated using PureLink RNA isolation kit (Thermofisher Scientific, Burlington, ON, Canada) according to the manufacturer's instruction with on column DNase step (PureLink DNAse kit) or DNase I treatment to remove genomic DNA. For mouse experiments, total RNA was isolated using mirVana PARIS RNA and native protein isolation kit (Thermofisher Scientific). RNA quality and quantity were measured using Nanodrop 2000 and 500-1000 ng of complimentary DNA (cDNA) was synthesized with High Capacity cDNA Reverse Transcription kit (Applied biosystems, Thermofisher Scientific). Quantitative reverse transcription polymerase chain reaction (RT-qPCR) was performed with 12.5 ng of cDNA amplified with Platinum SYBR green qPCR SuperMix-UDG with ROX on an Applied Biosystems Prism 7900HT or PowerTrack Green Master Mix on an Applied Biosystems QuantStudio 5 and gene specific primers as per manufacturer's instructions (Table 1). Data was analyzed using […] and normalized to reference gene, either 60S ribosomal protein L7 (Rpl7) or Histone 3a (His).
In general terms: In qPCR the cycle at which signal appears reflects the starting amount.

The test system of the next test is Akt (PKB). The test is described as follows: Akt (Ser473) phosphorylation by Western blot in mHypoE-46 after insulin re-exposure. The format is cell-based, mouse. The method, then: mHypoE-46 cells were serum starved in 5.5 mM glucose (LG) DMEM for 1 hour prior to treatment with vehicle (0.1% DMSO), 100 µM BAP or H20, […] 5-Aminoimidazole-4-carboxamide ribonucleotide (AICAR) or 0 mM glucose DMEM. Protein was harvested using 1× cell lysis buffer (Cell Signaling Technologies, Inc, CST) containing protease and phosphatase inhibitors. A total of 30 μg protein was separated on a 12% SDS-polyacrylamide gels and transferred onto PVDF membranes. […] Protein density was quantified using ImageJ or the iBright Imaging System.
In order to determine if insulin signaling and sensitivity may be affected by BAP, we assessed the activity and expression of the key signal transduction cascade activated by insulin, the PI3K/Akt pathway. mHypoE-46 neurons were co-treated with 100 μM insulin or vehicle control and 100 μM BAP and vehicle control for 24 hours. […] The phosphorylation level of Akt (PKB), the downstream kinase in the PI3K/Akt signal transduction pathway was assessed. […]
In general terms: In western blotting, separated proteins are transferred to a membrane and probed.

The test system of test [2] is mHypoA-POMC/GFP-2 cell line. Put plainly: Gene expression by qRT-PCR in mHypoA-POMC/GFP-2 hypothalamic cell line. In kind it is cell-based, mouse. The conditions noted are these: 100 μM BAP, 16 hr. The method, then: as §1, with “All cells were maintained in 5% CO2 at 37° C. BAP was initially dissolved in DMSO solvent (vehicle control) to achieve 1000x the intended dose. The BAP solution was then diluted 1:1000 with the growth media used for the cell line. For co-treatment experiments, the vehicle control for ATP, UDP, and PKI was water, and for the H89 PKA inhibitor was DMSO.” left out
For cell culture experiments, total RNA was isolated using PureLink RNA isolation kit (Thermofisher Scientific, Burlington, ON, Canada) according to the manufacturer's instruction with on column DNase step (PureLink DNAse kit) or DNase I treatment to remove genomic DNA. […] RNA quality and quantity were measured using Nanodrop 2000 and 500-1000 ng of complimentary DNA (cDNA) was synthesized with High Capacity cDNA Reverse Transcription kit (Applied biosystems, Thermofisher Scientific). […] Data was analyzed using […] and normalized to reference gene, either 60S ribosomal protein L7 (Rpl7) or Histone 3a (His).

For a further test, the system named is mHypoE-44 cell line. The test is described as follows: Gene expression by qRT-PCR in mHypoE-44 hypothalamic cell line. The format is cell-based, mouse. The note with it: for effect of PKA inhibition on BAP effect on Npy expression: n=2. The procedure: as §1, §2
The test system of the next test is AMPK. The test is described as follows: AMPK phosphorylation by Western blot in mHypoE-46. In kind it is cell-based, mouse. The conditions noted are these: 100 μM BAP, 15 min, mHypoE-46. The method, then: (§3) mHypoE-46 cells were serum starved in 5.5 mM glucose (LG) DMEM for 1 hour prior to treatment with vehicle (0.1% DMSO), 100 µM BAP or H20, […] 5-Aminoimidazole-4-carboxamide ribonucleotide (AICAR) or 0 mM glucose DMEM. Protein was harvested using 1× cell lysis buffer (Cell Signaling Technologies, Inc, CST) containing protease and phosphatase inhibitors. A total of 30 μg protein was separated on a 12% SDS-polyacrylamide gels and transferred onto PVDF membranes. Membranes were blocked in 5% milk dissolved in Tris-buffered saline with Tween 20 (TBS-T) for 1 h and incubated with primary antibody overnight at 4° C. phospho-AMPKα (Thr172; cat. 2532S, CST), and total AMPKα (cat. 2535S, CST); phospho-p70-S6K (Thr389; cat. 9205S, CST) and total p70-S6K (cat. 9202S, CST); insulin receptor ß (cat. 3025S, CST); phospho-AKT (Ser473; cat. 9271S, CST) and total AKT (cat. 9272S, CST); phospho-ERK1/2 (Thr202/Tyr204; cat. 9101, CST) and total ERK (cat. 4695, CST) were diluted 1:1000 in 5% milk in TBS-T. Membranes were washed and incubated with secondary HRP-linked antirabbit antibody (1:7500 in 5% milk in TBS-T, CST) for 1 h, washed, and imaged using the Signal Fire ECL Reagent (CST) on the iBright 1500 Imaging System (Thermofisher). Protein density was quantified using ImageJ or the iBright Imaging System.

For another test, the system named is p70-S6K. The test is described as follows: p70-S6K (Thr389) phosphorylation by Western blot in mHypoE-46. The format is cell-based, mouse. The note with it: 100 μM BAP for 5, 15, 30, 60 and 90 minutes, serum-starved mHypoE-46. The method, then: as §3, with “System. […]” for “System.”

With `c1ccc(CNc2ncnc3nc[nH]c23)cc1` [BAP, N6-benzylaminopurine], in test [1], the food intake result is “reduced”. In addition, the weight gain result in test [1] is given as “reduced”. In addition, the “Npy mRNA under co-treatment with ATP” value in the test with mHypoE-41 cell line (100 μM BAP + 100 μM ATP) is given as “unable to further induce Npy”; with mHypoE-44 cell line (100 μM BAP + 100 μM ATP, 16 hr), “still able to overcome this induction”. Also, the “Agrp mRNA expression” value is “increased” in the test with mHypoE-41 cell line (100 μM BAP) and “increased” in the test on mHypoE-44 cell line (100 μM BAP, 16 hr). Moreover, the “Npy mRNA expression” value was “increased” in the test on mHypoE-41 cell line (100 μM BAP) and “supressed” with mHypoE-44 cell line (100 μM BAP, 16 hr). Moreover, in the test on mHypoE-41 cell line (dose curve, attenuated at 500 μM), the “BAP dose with strongest Npy increase” value was 250 µM. For the same molecule, the “Npy expression, dose curve” value in the test with mHypoE-41 cell line (increasing concentrations of BAP) is “increases the expression of Npy”; with mHypoE-44 cell line (increasing concentrations of BAP, 16 hr) it was “decreases Npy in a dose dependent manner”. Moreover, in the test on Akt (PKB) (100 μM BAP 24 hours, neurons pre-treated with vehicle alone, re-exposed to 100 nM insulin), the “Akt phosphorylation at Ser473 upon 15 minutes of insulin exposure” value was “significantly increased”. In the test on Akt (PKB) (100 μM BAP, neurons pre-treated with 100 μM insulin for 24 hours), the “induction of Akt phosphorylation by BAP under insulin-induced cellular insulin resistance” value is on record as “not observed”. In addition, the Pomc expression entry in test [2] was “significantly induced”. The “effect of PKA inhibition on BAP effect on Npy expression” value is recorded as “unable to block the effects of BAP on Npy expression” in the test on mHypoE-44 cell line (100 μM BAP + 1 μM H89, 16 hr) and “unable to block the effects of BAP on Npy expression” with mHypoE-44 cell line (100 μM BAP + 10 μM PKI, 16 hr). In addition, the “Npy mRNA under co-treatment with UDP (effect of UDP on BAP repression)” value with mHypoE-44 cell line (100 μM BAP + 100 μM UDP, 16 hr) was “block the repression of Npy levels by BAP”. Also, in the test on mHypoE-44 cell line (100 μM BAP + 100 μM UTP, 16 hr, n=2 preliminary), the “Npy mRNA under co-treatment with UTP (effect of UTP on BAP repression)” value is recorded as “appears to be able to block the repression of Npy levels by BAP”. Also, in the test on mHypoE-44 cell line (100 μM BAP, at 8 and 16 hr (tested 2, 4, 8, 16, 24 hr)), the “Npy mRNA expression, time course” value is “significantly downregulate”. Further, the “BAP dose with strongest Npy decrease” value in the test on mHypoE-44 cell line (dose curve, 16 hr) amounted to 500 µM. In addition, the “AMPK phosphorylation or activation vs vehicle” value in the test on AMPK is reported as “significant decrease”. In the test on p70-S6K, the “p70-S6K (Thr389) phosphorylation (activity)” value is on record as “significantly downregulated”.

The values above are taken from patent US20260034135A1, “USE OF N6-BENZYLAMINOPURINE AS AN APPETITE SUPPRESSANT” (THE GOVERNING COUNCIL OF THE UNIVERSITY OF TORONTO, priority 2022, published 2026).
